Read-outs that look alike come from different tables or passages of the source.
How the values were obtained:
AuroraA-TPX2 = target: T1, AuroraA-TPX2 (Homo sapiens, UniProt O14965); assay: AuroraA-TPX2 Homogeneous Time Resolved Fluorescent (HTRF) kinase assay; format: biochemical; conditions: average, read-out: AurA/TP X2_ IC50_IP (Avg)
T1 construct: 20 µL of AuroraA-TPX2 KD GST; GST
T1 sequence (O14965 133-383 limits assumed): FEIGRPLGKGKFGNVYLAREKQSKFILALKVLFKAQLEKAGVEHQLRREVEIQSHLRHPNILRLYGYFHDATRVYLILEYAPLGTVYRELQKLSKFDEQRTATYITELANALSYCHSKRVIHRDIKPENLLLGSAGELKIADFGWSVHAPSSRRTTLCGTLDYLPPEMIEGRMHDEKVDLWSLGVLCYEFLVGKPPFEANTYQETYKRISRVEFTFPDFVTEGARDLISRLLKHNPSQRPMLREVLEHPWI
T1 sequence (Q9ULW0 1-43 partner limits assumed): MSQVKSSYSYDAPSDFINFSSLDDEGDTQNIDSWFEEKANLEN
Summary of the method: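 Aurora-A/TPX2 phosphorylates biotinylated PLK peptide (about 1 µM) with ATP for about 120 min in 60 mM HEPES pH 7.5, 10 mM MgCl2, 2 mM DTT. EDTA quench, overnight equilibration with Eu-anti-phosphoPLK antibody and SA-APC; HTRF read at 615/655 nm after 320 nm excitation.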

AuroraB = target: T2, AuroraB (Homo sapiens, UniProt Q96GD4); assay: AuroraB Homogeneous Time Resolved Fluorescent (HTRF) kinase assay; format: biochemical; conditions: average, read-out: AurB_ _IC50_IP (Avg)
T2 construct: 20 µL of AuroraB FL His; His
Summary of the method: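 Full-length His-tagged AuroraB (400 pM) phosphorylates 0.1 µM biotinylated Histone H3 with 23 µM ATP (Km(app)) in HEPES pH 7.5 with Mg/Mn, about 90 min. EDTA-quenched; Eu-anti-phosphoHistoneH3 and SA-APC HTRF, 655/615 nm ratio as phosphorylation.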

[1] = given as numbers, unit inferred

T2 sequence (Q96GD4 whole entry): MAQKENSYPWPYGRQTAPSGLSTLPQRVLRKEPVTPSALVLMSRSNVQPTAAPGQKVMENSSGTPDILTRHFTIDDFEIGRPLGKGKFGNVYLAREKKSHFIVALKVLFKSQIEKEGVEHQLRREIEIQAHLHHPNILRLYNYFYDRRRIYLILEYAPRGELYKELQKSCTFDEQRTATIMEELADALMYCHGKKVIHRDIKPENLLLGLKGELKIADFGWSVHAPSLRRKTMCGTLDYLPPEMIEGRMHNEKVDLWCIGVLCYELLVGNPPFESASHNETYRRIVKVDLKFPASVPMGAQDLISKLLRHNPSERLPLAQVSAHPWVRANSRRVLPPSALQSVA

Row | Molecule | IC50 (AuroraA-TPX2; given as class symbols) [nM] | IC50 (AuroraB; given as class symbols) [nM] | IC50 (AuroraA-TPX2; [1]) [nM] | IC50 (AuroraB; [1]) [nM]
1 | CCc1cc(-c2ccccc2)nnc1Nc1ccc(Oc2ncccc2-c2ccnc(NCCCN3CCNCC3)n2)nc1 [compound 451, 4-ethyl-6-phenyl-N-(6-((3-(2-((3-(1-piperazinyl)propyl)amino)-4-pyrimidinyl)-2-pyridinyl)oxy)-3-pyridinyl)-3-pyridazinamine] | 100 to 500 | ≤ 100 |  | 
2 | FC1CCCN(CCCNc2nccc(-c3cccnc3Oc3ccc(Nc4nnc(-c5ccccc5)c5ccccc45)cc3)n2)C1 (stereo not drawn) [compound 452, N-(4-((3-(2-((3-(3-fluoro-1-ptperidinyl)propyl)amino)-4-pyrimidinyl)-2-pyridinyl)oxy)phenyl)-4-phenyl-1-phthalazinamine] | ≤ 100 | ≤ 100 |  | 
3 | FC1(F)CCCN(CCCNc2nccc(-c3cccnc3Oc3ccc(Nc4nnc(-c5ccccc5)c5ccccc45)cc3)n2)C1 [compound 453, N-(4-((3-(2-((3-(3,3-difluoro-1-piperidinyl)propyl)amino)-4-pyrimidinyl)-2-pyridinyl)oxy)phenyl)-4-phenyl-1-phthalazinamine] | ≤ 100 | ≤ 100 |  | 
4 | COc1cccc(-c2nnc(Nc3ccc(Oc4ncccc4-c4ccnc(NCCCN5CCCCC5)n4)cc3)c3ccccc23)n1 [compound 454, 4-(6-(methyloxy)-2-pyridinyl)-N-(4-((3-(2-((3-(1-piperidinyl)propyl)amino)-4-pyrimidinyl)-2-pyridinyl)oxy)phenyl)-1-phthalazinamine] | ≤ 100 | ≤ 100 |  | 
5 | COc1cccc(-c2nnc(Nc3ccc(Oc4ncccc4-c4ccnc(NCCCN5CCCC5)n4)cc3)c3ccccc23)n1 [compound 455, 4-(6-(methyloxy)-2-pyridinyl)-N-(4-((3-(2-((3-(1-pyrrolidinyl)propyl)amino)-4-pyrimidinyl)-2-pyridinyl)oxy)phenyl)-1-phthalazinamine] | ≤ 100 | ≤ 100 |  | 
6 | CCc1cc(-c2ccccc2)nnc1Nc1ccc(Oc2ncccc2-c2ccnc(NCCCN3CCN(C)CC3)n2)cc1 [compound 456, 4-ethyl-N-(4-((3-(2-((3-(4-methyl-1-piperazinyl)propyl)amino)-4-pyrimidinyl)-2-pyridinyl)oxy)phenyl)-6-phenyl-3-pyridazinamine] | ≤ 100 | ≤ 100 |  | 
7 | CCc1cc(-c2ccccc2)nnc1Nc1ccc(Oc2ncccc2-c2ccnc(NCCCN3CCNCC3)n2)cc1 [compound 457, 4-ethyl-6-phenyl-N-(4-((3-(2-((3-(1-piperazinyl)propyl)amino)-4-pyrimidinyl)-2-pyridinyl)oxy)phenyl)-3-pyridazinamine] | ≤ 100 | ≤ 100 |  | 
8 | CCc1cc(-c2ccccc2)nnc1Nc1ccc(Oc2ncccc2-c2ccnc(NCCCN3CCCCC3)n2)cc1 [compound 458, 4-ethyl-6-phenyl-N-(4-((3-(2-((3-(1-piperidinyl)propyl)amino)-4-pyrimidinyl)-2-pyridinyl)oxy)phenyl)-3-pyridazinamine] | ≤ 100 | ≤ 100 |  | 
9 | CCc1cc(-c2ccccc2)nnc1Nc1ccc(Oc2ncccc2-c2ccnc(NCCCN3CCCC3)n2)cc1 [compound 459, 4-ethyl-6-phenyl-N-(4-((3-(2-((3-(1-pyrrolidinyl)propyl)amino)-4-pyrimidinyl)-2-pyridinyl)oxy)phenyl)-3-pyridazinamine] | 100 to 500 | ≤ 100 |  | 
10 | COc1cccc(-c2nnc(Nc3ccc(Oc4ncccc4-c4ccnc(NCCCN5CCNCC5)n4)cc3)c3ccccc23)n1 [compound 460, 4-(6-(methyloxy)-2-pyridinyl)-N-(4-((3-(2-((3-(1-piperazinyl)propyl)amino)-4-pyrimidinyl)-2-pyridinyl)oxy)phenyl)-1-phthalazinamine] | ≤ 100 | ≤ 100 |  | 
11 | N-(4-((3-(2-amino-4-pyrimidinyl)-2-pyridinyl)oxy)phenyl)-4-(6-methyl-2-pyridinyl)-1-phthalazinamine [compound 271] |  |  | 24.3 | 1
12 | N-(4-((3-(2-amino-4-pyrimidinyl)-2-pyridinyl)oxy)phenyl)-4-ethyl-6-phenyl-3-pyridazinamine [compound 435] | ≤ 100 | ≤ 100 |  | 

— EP1984353B1, “AURORA KINASE MODULATORS AND METHOD OF USE” (Amgen, Inc, priority 2006, dated 2007)
